According to the supplement of paper PMC10307832:

Assays:
Assay in all cases: relative viability (nuclei count vs DMSO), 5 days (fraction); higher = more cells survive
RU-SKI 43 + Bortezomib = compound: CC[C@@H](C)CNCC(=O)N1CCC2=C([C@@H]1COC3=CC=CC(=C3)C)C=CS2 [RU-SKI 43] + CC(C)C[C@H](NC(=O)[C@H](Cc1ccccc1)NC(=O)c1cnccn1)B(O)O [Bortezomib] (partner 0.002 µM)
Procedure, shortened: (§1)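 For relative viability, nuclei counts in treated wells were divided by those in vehicle wells. Lung cancer cell lines had been pin-tool dosed in 1536-well plates the day after seeding and cultured for 5 days, then fixed and stained in one step (final 0.05% Triton X-100, 1% formaldehyde, 1 ug/ml Hoechst) and imaged at 4×. Doses were one drug alone or a fixed anchor-drug dose plus five library-drug doses (not always all listed) in √10 steps, and values are duplicate-plate medians.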

RU-SKI 43 + Linsitinib = compound: CC[C@@H](C)CNCC(=O)N1CCC2=C([C@@H]1COC3=CC=CC(=C3)C)C=CS2 [RU-SKI 43] + C[C@]1(O)C[C@@H](c2nc(-c3ccc4ccc(-c5ccccc5)nc4c3)c3c(N)nccn32)C1 [Linsitinib] (partner 1 µM)
Procedure, shortened: as §1

Irinotecan + Pemetrexed = compound: CCc1c2c(nc3ccc(OC(=O)N4CCC(N5CCCCC5)CC4)cc13)-c1cc3c(c(=O)n1C2)COC(=O)[C@]3(O)CC [Irinotecan] + Nc1nc2[nH]cc(CCc3ccc(C(=O)N[C@@H](CCC(=O)O)C(=O)O)cc3)c2c(=O)[nH]1 [Pemetrexed] (partner 0.2 µM)
Procedure, shortened: as §1

MK-8033 + OSI-027 = compound: Cn1cc(-c2cnc3ccc4ccc(CS(=O)(=O)NCc5ccccn5)cc4c(=O)c3c2)cn1 [MK-8033] + COc1cccc2cc(-c3nc([C@H]4CC[C@H](C(=O)O)CC4)n4ncnc(N)c34)[nH]c12 [OSI-027] (partner 0.5 µM)
Procedure, shortened: as §1

Cell Line | relative viability (RU-SKI 43 + Bortezomib; first compound 0.1 µM) | relative viability (RU-SKI 43 + Bortezomib; first compound 0.3162 µM) | relative viability (RU-SKI 43 + Bortezomib; first compound 1 µM) | relative viability (RU-SKI 43 + Bortezomib; first compound 3.162 µM) | relative viability (RU-SKI 43 + Bortezomib; first compound 10 µM) | relative viability (RU-SKI 43 + Linsitinib; first compound 0.1 µM) | relative viability (RU-SKI 43 + Linsitinib; first compound 0.3162 µM) | relative viability (RU-SKI 43 + Linsitinib; first compound 1 µM) | relative viability (RU-SKI 43 + Linsitinib; first compound 3.162 µM) | relative viability (RU-SKI 43 + Linsitinib; first compound 10 µM) | relative viability (Irinotecan + Pemetrexed; first compound 0.6325 µM) | relative viability (Irinotecan + Pemetrexed; first compound 2 µM) | relative viability (Irinotecan + Pemetrexed; first compound 6.325 µM) | relative viability (Irinotecan + Pemetrexed; first compound 20 µM) | relative viability (MK-8033 + OSI-027; first compound 0.02 µM) | relative viability (MK-8033 + OSI-027; first compound 0.06325 µM) | relative viability (MK-8033 + OSI-027; first compound 0.2 µM) | relative viability (MK-8033 + OSI-027; first compound 0.6325 µM) | relative viability (MK-8033 + OSI-027; first compound 2 µM)
201T | 1.09 | 1.09 | 1.17 | 1.12 | 1.07 | 1.07 | 1.02 | 1.07 | 1.17 | 1.03 | 0.274 | 0.308 | 0.271 | 0.283 | 0.767 | 0.703 | 0.683 | 0.675 | 0.817
A549 | – | – | – | – | – | 0.73 | 0.762 | 0.656 | 0.596 | 0.613 | – | – | – | – | – | – | – | – | –
A-427 | 1.05 | 0.95 | 1.05 | – | 0.896 | 1.08 | 1.22 | 1.13 | – | 1.01 | 0.884 | 1 | 0.396 | 0.229 | 0.539 | 0.463 | 0.431 | 0.527 | 0.4
ABC-1 | 0.286 | 0.351 | 0.35 | 0.285 | 0.312 | 0.924 | 0.775 | 0.801 | 0.569 | 0.845 | – | – | – | – | 0.417 | 0.339 | 0.415 | 0.457 | 0.506
BEN | 0.815 | 0.819 | 1.24 | 0.769 | 0.665 | 1.02 | 1.2 | 1.15 | 0.965 | 0.922 | 0.535 | 0.828 | 0.415 | 0.485 | 0.305 | 0.298 | 0.295 | 0.284 | 0.244
CAL-12T | 0.967 | 1 | 1.3 | 0.961 | 0.964 | 0.726 | 0.873 | 0.877 | 0.827 | 0.771 | 1.14 | 0.995 | 0.355 | 0.234 | 0.551 | 0.655 | 0.519 | 0.695 | 0.536
COR-L23 | 1.18 | 0.714 | 1.12 | 1.14 | 1.03 | 0.971 | 0.847 | 0.815 | 0.83 | 1.09 | 0.181 | 0.178 | 0.204 | 0.165 | 0.814 | 0.743 | 0.701 | 0.749 | 0.736
COR-L 105 | 0.893 | 0.726 | 0.83 | 0.963 | 0.616 | 0.955 | 1.08 | 1.02 | 1.08 | 0.945 | 1.35 | 0.93 | 0.649 | 0.442 | 0.687 | 0.429 | 0.635 | 0.638 | 0.671
Calu-6 | 1.1 | 0.966 | 1.04 | 1.1 | 0.974 | 0.942 | 1.05 | 0.999 | 0.929 | 1.02 | – | – | – | – | – | – | – | – | –
ChaGo-K-1 | 1.39 | 1.14 | 1.29 | 0.84 | 0.939 | – | – | – | – | – | 0.238 | 0.232 | 0.236 | 0.239 | 0.51 | 0.536 | 0.528 | 0.552 | 0.511
EBC-1 | 0.469 | 0.428 | 0.652 | 0.451 | 0.382 | 1.04 | 0.936 | 0.847 | 0.956 | 0.827 | – | – | – | – | – | – | – | – | –
EKVX | 1.09 | 1.24 | 1.2 | 0.958 | 0.585 | 0.948 | 1.24 | 0.977 | 1.05 | 1 | – | 0.339 | 0.246 | 0.205 | 0.731 | 0.665 | 0.637 | 0.642 | 0.723
EMC-BAC-2 | 1.14 | 1.13 | 1.11 | 1.11 | 1.04 | 0.811 | 0.982 | 0.895 | 0.838 | 0.851 | 0.389 | 0.393 | 0.312 | 0.244 | 0.384 | 0.408 | 0.395 | 0.375 | 0.386
EPLC-272H | 0.905 | 1.08 | 1.09 | – | 1.09 | 1.35 | 1.37 | 1.41 | – | 1.07 | 0.351 | 0.321 | 0.292 | 0.268 | 0.271 | 0.291 | 0.299 | 0.306 | 0.276
H3255 | 0.906 | 0.751 | 1.23 | 0.652 | 0.754 | 0.913 | 0.926 | 0.943 | 1.09 | 0.891 | 0.529 | 0.603 | 0.393 | 0.37 | 0.621 | 0.551 | 0.597 | 0.491 | 0.639
HARA | 1.22 | 1.19 | 1.13 | 1.18 | 1.14 | 1.03 | 1.02 | 1.09 | 1.05 | 0.851 | 0.211 | 0.294 | 0.182 | 0.192 | 0.569 | 0.265 | 0.487 | 0.429 | 0.418
HCC-15 | 1.12 | 1.28 | 1.2 | 1.08 | 1.11 | 0.964 | 1.1 | 0.988 | 0.946 | 0.882 | 0.18 | 0.188 | 0.207 | 0.189 | 0.692 | 0.588 | 0.64 | 0.648 | 0.656
HCC-44 | 0.918 | 0.864 | 1 | 0.849 | 0.852 | 0.595 | 0.647 | 0.835 | 0.69 | 0.645 | 0.617 | 0.721 | 0.549 | 0.488 | 0.472 | 0.508 | 0.465 | 0.605 | 0.522
HCC-78 | 0.505 | 0.495 | 0.484 | 0.471 | 0.427 | 0.576 | 0.551 | 0.712 | 0.344 | 0.551 | 0.87 | 0.99 | 0.897 | 0.94 | 0.352 | – | 0.329 | 0.34 | 0.398
